The structures appear in SMILES notation.

Here are results for nine molecules from article PMC9118204, “Novel Dihydropyrimidinone Derivatives as Potential P-Glycoprotein Modulators” (ACS Omega, 2022).

For data set [1], the system named is colorectal adenocarcinoma (Caco-2) cell line. The experiment in a line: MTT cytotoxicity assay against Caco-2 cells. It is filed as cell-based. As to conditions: for IC50: Homo sapiens; for cytotoxic activity in words: halogen in the N-phenyl substituent. Here is the method:
The colorectal adenocarcinoma Caco-2 cell line was generously provided by the Zydus Research Centre, Ahmedabad, Gujarat, India. These cells were maintained in DMEM (Hi-Media) containing 25 mM HEPES buffer, 1000 mg/L glucose, L-glutamine, sodium bicarbonate, and sodium pyruvate and supplemented with 20% heat-inactivated FBS (cell clone), 1% (v/v) minimal essential medium nonessential amino acids (Hi-Media), antibiotic, and antimycotic (penicillin, streptomycin, and amphotericin B; Hi-Media) in a humidified atmosphere of 5% CO2 at 37 °C. […] Caco-2 VB cells, which overexpress hPGP, were generated by growing Caco-2 cells in the presence of 1 μg/mL vinblastine. The drug was removed from the culture medium 2–3 days prior to using the Caco-2 VB cells in the biological assays.
Caco-2 cells were cultured in 96-well plates until they reached 70–80% confluency and then treated with the TRZ-DHPM derivatives (0.1–100 μM). Cytotoxicity was determined using an MTT (3-(4,5-dimethylthiazol-2-yl)-2,5-diphenyltetrazolium bromide) assay as described previously.[31]
Background: Tetrazolium dyes change colour on reduction, which living cells bring about.

Data set [2] concerns the target T1, human P-glycoprotein (hPgp) (Homo sapiens, UniProt P08183).
T1 construct: Caco-2 VB cells, which overexpress hPGP, were generated by growing Caco-2 cells in the presence of 1 μg/mL vinblastine; endogenous in cells; host or cells: Caco-2 VB (vinblastine-resistant human colorectal adenocarcinoma Caco-2 cells)
Description: hPgp-mediated calcein-AM efflux assay in Caco-2 VB cells. In kind it is cell-based. Conditions: for EC50: Caco-2 VB cells, calcein-AM, read-out: inhibition of calcein extrusion, EC50. As to the method: (§1) In this assay, hydrolysis of intracellular calcein-AM to calcein by endogenous cellular esterases causes the cell to become highly fluorescent (see Figure S1 in Supporting Information).
The colorectal adenocarcinoma Caco-2 cell line was generously provided by the Zydus Research Centre, Ahmedabad, Gujarat, India. […] Caco-2 VB cells, which overexpress hPGP, were generated by growing Caco-2 cells in the presence of 1 μg/mL vinblastine. The drug was removed from the culture medium 2–3 days prior to using the Caco-2 VB cells in the biological assays.
Each well contained 100 μL of cells in culture medium, 50 μL of a solution containing the TRZ-DPHM derivative, and 50 μL of calcein-AM (total volume, 200 μL). The final concentration of putative hPGP inhibitor in each assay ranged from 0.01 to 30 μg/mL. […] Caco-2 cells were used as a negative control (Figure S1). […] PBS was used for all dilutions. All experiments were performed in triplicate.
The effectiveness of inhibitors on Pgp efflux activity, i.e., calcein retention was calculated by the following equation [drawing 1] where FT is the fluorescence of treated cells and FU is the fluorescence of untreated cells.

Data set [3] deals with T2, hPgp (Homo sapiens, UniProt P08183).
T2 construct: Caco-2 VB cells, which overexpress hPGP, were generated by growing Caco-2 cells in the presence of 1 μg/mL vinblastine; endogenous in cells; host or cells: Caco-2 VB (vinblastine-resistant human colorectal adenocarcinoma Caco-2 cells)
Description: Fluorescence microscopy imaging of intracellular calcein in Caco-2 VB cells. It is filed as cell-based. Conditions: for intracellular calcein retention by fluorescence microscopy: Caco-2-VB cells, 1 μM calcein-AM, 30 min, concentration = EC50.
Text: as §1
Full details are provided in the Supporting Information.

Where [4] appears, read: Caco-2 cell line, MTT assay (Table 1).

T2 sequence (P08183 whole entry): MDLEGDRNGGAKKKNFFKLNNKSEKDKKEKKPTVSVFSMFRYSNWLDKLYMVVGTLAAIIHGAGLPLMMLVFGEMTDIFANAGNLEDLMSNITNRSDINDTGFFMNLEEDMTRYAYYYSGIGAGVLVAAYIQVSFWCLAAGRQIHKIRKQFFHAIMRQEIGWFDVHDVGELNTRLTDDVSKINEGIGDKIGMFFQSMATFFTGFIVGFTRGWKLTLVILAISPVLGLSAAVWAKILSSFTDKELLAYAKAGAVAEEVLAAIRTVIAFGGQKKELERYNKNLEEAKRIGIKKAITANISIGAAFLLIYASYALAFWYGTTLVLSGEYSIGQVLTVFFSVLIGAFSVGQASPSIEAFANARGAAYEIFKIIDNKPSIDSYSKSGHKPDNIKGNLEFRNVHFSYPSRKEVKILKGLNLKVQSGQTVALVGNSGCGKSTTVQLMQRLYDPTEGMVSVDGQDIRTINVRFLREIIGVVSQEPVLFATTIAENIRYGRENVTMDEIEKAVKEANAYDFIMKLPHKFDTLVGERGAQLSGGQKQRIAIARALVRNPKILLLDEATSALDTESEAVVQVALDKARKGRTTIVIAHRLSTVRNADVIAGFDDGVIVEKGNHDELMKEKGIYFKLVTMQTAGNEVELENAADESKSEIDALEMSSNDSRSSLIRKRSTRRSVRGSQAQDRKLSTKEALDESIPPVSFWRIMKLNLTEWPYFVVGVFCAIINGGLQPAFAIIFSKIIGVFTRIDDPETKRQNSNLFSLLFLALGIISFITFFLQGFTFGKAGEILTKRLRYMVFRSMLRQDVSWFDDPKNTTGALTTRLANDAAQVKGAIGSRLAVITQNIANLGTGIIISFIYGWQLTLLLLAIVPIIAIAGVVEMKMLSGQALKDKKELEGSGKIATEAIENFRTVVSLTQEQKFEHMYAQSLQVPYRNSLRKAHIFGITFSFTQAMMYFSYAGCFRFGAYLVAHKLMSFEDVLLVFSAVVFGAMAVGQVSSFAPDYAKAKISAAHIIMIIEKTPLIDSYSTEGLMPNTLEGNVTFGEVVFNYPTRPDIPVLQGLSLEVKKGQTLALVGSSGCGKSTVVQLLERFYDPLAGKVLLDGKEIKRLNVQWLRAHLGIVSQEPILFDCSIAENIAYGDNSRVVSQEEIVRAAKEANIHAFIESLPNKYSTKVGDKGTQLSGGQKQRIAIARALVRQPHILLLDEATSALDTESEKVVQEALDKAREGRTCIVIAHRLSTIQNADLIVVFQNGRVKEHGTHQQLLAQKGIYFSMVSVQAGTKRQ
T1 sequence (P08183 whole entry): as above

By IC50 is commonly meant the midpoint of a concentration-inhibition curve. The term EC50 denotes the midpoint of the concentration-response curve. By melting point is commonly meant the temperature, or range, at which the solid turns liquid. As for `CC(=O)C1=C(C)NC(=O)NC1c1ccccc1OCc1cn(-c2ccccc2)nn1` (stereo not drawn) [6aa′, 5-Acetyl-6-methyl-4-(2-((1-phenyl-1H-1,2,3-triazol-4-yl)methoxy)phenyl)-3,4-dihydropyrimidin-2(1H)-one], the melting point lay within 145 to 147 °C. This molecule gave a half-maximal inhibitory concentration (IC50) in data set [1] (Caco-2 cell line (Table S3)) of 1000 ± 300 nM. The same molecule gave an IC50 in data set [1] (setting [4]) of 1100 ± 200 nM. Moreover, in data set [2], the half-maximal effective concentration (EC50) was 12560 ± 80 nM.

`CC(=O)C1=C(C)NC(=O)NC1c1ccccc1OCc1cn(-c2ccccc2[N+](=O)[O-])nn1` (stereo not drawn) [6ab′, 5-Acetyl-6-methyl-4-(2-((1-(2-nitrophenyl)-1H-1,2,3-triazol-4-yl)methoxy)phenyl)-3,4-dihydropyrimidin-2(1H)-one] registered a melting point of 133 to 135 °C. In data set [1] (setting [4]), this molecule gave an IC50 of 1300 ± 800 nM. The EC50 in data set [2] is 15420 ± 60 nM. Further, the “decrease in potency on replacing chlorine by nitro group” value in data set [2] (relative to 6ad′, calcein-AM assay) is listed as 5 fold.

`CC(=O)C1=C(C)NC(=O)NC1c1ccccc1OCc1cn(-c2cccc(Cl)c2)nn1` (stereo not drawn) [6ad′, 5-Acetyl-4-(2-((1-(3-chlorophenyl)-1H-1,2,3-triazol-4-yl)methoxy)phenyl)-6-methyl-3,4-dihydropyrimi-din-2(1H)-one] returned a melting point of 130 to 132 °C. In addition, the “cytotoxic activity in words” value in data set [1] (Caco-2 cell line) is recorded as “sub-micromolar”. In data set [1] (setting [4]), this molecule showed an IC50 of 570 ± 30 nM. Moreover, the EC50 in data set [2] is 3140 ± 30 nM. In addition, the “intracellular calcein retention by fluorescence microscopy” value (from here on “intracellular calcein retention”) in data set [3] is “confirmed intracellular calcein retention”. The “modulation of hPgp function compared with cyclosporin A or verapamil (statistical analysis)” value in data set [3] (calcein retention, p < 0.0001) is “better modulator of hPgp function”.

Molecule `CC(=O)C1=C(C)NC(=O)NC1c1ccc(OCc2cn(-c3cccc(Cl)c3)nn2)cc1` (stereo not drawn) [6bd′, 5-Acetyl-4-(4-((1-(3-chlorophenyl)-1H-1,2,3-triazol-4-yl)methoxy)phenyl)-6-methyl-3,4-dihydropyrimidin-2(1H)-one] registered a melting point of 142 to 144 °C. Also, the “cytotoxic activity in words” value in data set [1] (Caco-2 cell line) is “sub-micromolar”. The molecule also returned an IC50 in data set [1] (setting [4]) of 760 ± 60 nM. For the same molecule, in data set [2], the EC50 is 4800 ± 200 nM.

Turning to `CC(=O)C1=C(C)NC(=O)NC1c1ccc(OCc2cn(-c3cccc(Br)c3)nn2)cc1` (stereo not drawn) [6be′, 5-Acetyl-4-(4-((1-(3-bromophenyl)-1H-1,2,3-triazol-4-yl)methoxy)phenyl)-6-methyl-3,4-dihydropyrimidin-2(1H)-one], the melting point was in the range of 138 to 140 °C. The “cytotoxic activity in words” value in data set [1] (Caco-2 cell line) is “sub-micromolar”. Further, half-maximal inhibition in data set [1] (setting [4]) (IC50) was put at 800 ± 100 nM. The EC50 in data set [2] is 9250 ± 20 nM.

The molecule `COc1ccc(-n2cc(COc3ccc(C4NC(=O)NC(C)=C4C(C)=O)cc3)nn2)c(OC)c1` (stereo not drawn) [6bh′, 5-Acetyl-4-(4-((1-(2,4-dimethoxyphenyl)-1H-1,2,3-triazol-4-yl)methoxy)phenyl)-6-methyl-3,4-dihydro-pyrimidin-2(1H)-one] yielded a melting point of 140 to 142 °C. The molecule also registered an IC50 in data set [1] (setting [4]) of 600 ± 200 nM. Also, in data set [2], the EC50 was 4200 ± 200 nM.

The molecule `CC(=O)C1=C(C)NC(=O)NC1c1cc(Br)cc(Br)c1OCc1cn(-c2ccccc2)nn1` (stereo not drawn) [6ca′, 5-Acetyl-4-(3,5-dibromo-2-((1-phenyl-1H-1,2,3-triazol-4-yl)methoxy)phenyl)-6-methyl-3,4-dihydropyrimidin-2(1H)-one] had a melting point of 157 to 159 °C. The molecule further came in with an IC50 in data set [1] (setting [4]) of 900 ± 100 nM. Moreover, the EC50 in data set [2] was 4000 ± 200 nM. Also, in data set [3], the “intracellular calcein retention” value is recorded as “confirmed intracellular calcein retention”.

Turning to `CC(=O)C1=C(C)NC(=O)NC1c1cc(Br)cc(Br)c1OCc1cn(-c2ccccc2[N+](=O)[O-])nn1` (stereo not drawn) [6cb′, 5-Acetyl-4-(3,5-dibromo-2-((1-(2-nitrophenyl)-1H-1,2,3-triazol-4-yl)methoxy)phenyl)-6-methyl-3,4-dihydro-pyrimidin-2(1H)-one], the melting point was 167 to 169 °C. Moreover, in data set [1] (setting [4]), the IC50 was determined as 1220 ± 80 nM. Besides, the EC50 in data set [2] was 3400 ± 300 nM. Moreover, the “intracellular calcein retention” value in data set [3] is reported as “confirmed intracellular calcein retention”.

The molecule `CC(=O)C1=C(C)NC(=O)NC1c1cc(Br)cc(Br)c1OCc1cn(-c2ccc([N+](=O)[O-])cc2)nn1` (stereo not drawn) [6cc′, 5-Acetyl-4-(3,5-dibromo-2-((1-(4-nitrophenyl)-1H-1,2,3-triazol-4-yl)methoxy)phenyl)-6-methyl-3,4-dihydro-pyrimidin-2(1H)-one] displayed a melting point of 165 to 167 °C. Further, half-maximal inhibition in data set [1] (setting [4]) (IC50) was put at 1250 ± 80 nM. Also, the EC50 in data set [2] is 8900 ± 100 nM.
